# Patent US5049686A, “Novel large-ring diamine platinum(II) and platinum(IV) chelates” (Warner-Lambert Company, priority 1989, dated 1991)
# Experiments:
# Type in all cases: cell-based, murine
# L1210DACH = test: In vitro cytotoxicity, growth inhibition of Pt(DACH)Cl2-resistant L1210 cell line over 72 hours; details: for ID50 / factor of crossresistance (resistance ratio): L1210DACH; for ID50: 72 hours; for factor of crossresistance (resistance ratio): ID50 resistant / ID50 normal cell line, in parentheses; for factor of crossresistance (resistance ratio) / cross resistance to Pt(DACH)Cl2-resistant L1210 cells in culture: 4320 min
# Protocol: (§1) ID50 values are the concentration of complex required to inhibit the in vitro growth of treated cells to a level of 50% of that for untreated cells over a 72-hour period. The cell lines are suspended in appropriate media at a concentration which results in the cells remaining in log phase growth throughout the treatment period. Serially diluted drug is added to duplicate wells containing the cell growth. After 72 hours of incubation of the cell lines in 5% CO2, the cells are counted and the ID50 values determined.
# (§2) Resistance ratio values shown in Table 1 were calculated by dividing the ID50 values against the resistant cell lines by the ID50 values against the normal cell lines. The resistance ratio values shown in the table indicate a measure of the degree of resistance of the cell line to a particular drug.
# L1210DDP5 = test: In vitro cytotoxicity, growth inhibition of resistant L1210 cell line L1210DDP5 over 72 hours; details: for ID50: 72 hours; for factor of crossresistance (resistance ratio): ID50 resistant / ID50 normal cell line, in parentheses, 4320 min
# Protocol: as §1, §2
# L1210S = test: In vitro cytotoxicity, growth inhibition of normal L1210 cell line over 72 hours; details: for ID50: normal L1210 cell line, 72 hours; for factor of crossresistance (resistance ratio): ID50 divided by ID50 against normal cell line, in parentheses, 4320 min
# Protocol: as §1, §2
# L1210PtR4 = test: In vitro cytotoxicity, growth inhibition of resistant L1210 cell line L1210PtR4 over 72 hours; details: for ID50: 72 hours; for factor of crossresistance (resistance ratio): ID50 resistant / ID50 normal cell line, in parentheses, 4320 min
# Protocol: as §1, §2
# L1210 cell lines = test: In vitro antitumor activity against L1210 cell lines compared with cisplatin; details: in words
# Protocol: as §1, §2
# [1] = tested on: cisplatin-resistant cells; test: In vitro activity against cisplatin-resistant L1210 cells compared with cisplatin; details: in words; for effectiveness against cisplatin-resistant cells: compared with cisplatin
# Protocol: as §1, §2
Molecule,ID50 (L1210DACH) [µg/mL],ID50 (L1210DDP5) [µg/mL],ID50 (L1210S) [µg/mL],ID50 (L1210PtR4) [µg/mL],factor of crossresistance (resistance ratio) (L1210DACH),cross resistance to Pt(DACH)Cl2-resistant L1210 cells in culture (L1210DACH) [fold],factor of crossresistance (resistance ratio) (L1210DDP5),factor of crossresistance (resistance ratio) (L1210S),factor of crossresistance (resistance ratio) (L1210PtR4),antitumor activity compared to cisplatin (potency and response) (L1210 cell lines),effectiveness against cisplatin-resistant cells [1],cross resistance to cisplatin [1]
"N.N.[Cl][Pt][Cl] [Cisplatin, cis-diaminedichloroplatinum(II), reference compound]",0.467,5.63,0.34,3.61,,,,,,,,
"NC1CCCCC1N.[Cl][Pt][Cl] (stereo not drawn) [[Pt(trans-l-DACH)Cl2], [SP-4-2-(1R-trans)]-dichloro(1,2-cyclohexanediamine-N,N')platinum, reference compound]",2.67,0.176,0.088,0.159,30,30,2,1,1.8,,,
"(SP-4-2)-Dichloro(1,5-pentanediamine-N,N')-platinum [Example 1]",1.17,1.58,0.43,1.13,2.7,2.7,3.7,1,2.6,superior to cisplatin both in potency and response,more effective than cisplatin against cisplatin-resistant cells,some degree of cross resistance to cisplatin
"(SP-4-2)-Dichloro(1,6-hexanediamine-N,N')-platinum [Example 2]",2.13,3.7,0.93,2.8,2.3,2.3,4,1,3,superior to cisplatin both in potency and response,more effective than cisplatin against cisplatin-resistant cells,some degree of cross resistance to cisplatin
